The values that follow come from patent US10251865B2, “Method of activating regulatory T cells with alpha-2B adrenergic receptor agonists” (Allergan, Inc., priority 2010, dated 2019).

Format in all cases: in vivo
For experiment [1], the system named is regulatory T cells and immune cells in the CNS. The experiment can be described thus: Flow cytometry of immune cells and Treg cells in PLP-induced EAE mice. An excerpt:
The mouse model of experimental autoimmune encephalomyelitis (EAE) has been used extensively to understand the mechanisms underlying the immunopathogenesis of MS. […] Components of the immune system including T cells, macrophage, and antibodies are important contributors to myelin destruction in EAE mice. Further, inflammation also gives rise to multifocal regions demyelination culminating in clinical signs of neurologic dysfunction that include loss of tail tone, abnormal gait and partial-to-complete hind-limb paralysis. PLP-induced EAE model offers the ability to simultaneously investigate the pathogenic mechanisms of CNS inflammation and demyelination and MS-associated pain, a multi-targeted concept that we have optimized here at Allergan. Using sterile technique proteolipid protein myelin peptide (PLP) (139-159: […]) is mixed 1:1 with incomplete Freund's adjuvant (IFA) (Final concentration of 2 mg/ml PLP). 8-10 week old Female SJL mice (Taconic) are injected subcutaneously with 100 μl PLP/IFA (200 μg PLP/injection) on both the right and left hind-flank (day 0) using a 26G needle. […]
Mice were routinely visually scored for behavioral abnormalities on a scale from 0-5; 0-no abnormality, 1-partial loss of tail tonicity (partial limp tail), 2-loss of tail tonicity and hind-limb weakness 3-unsteady gait and partial hind-limb paralysis, 4-complete hind-limb paralysis and 5-moribund or dead. […] Allodynia was measured by the Von Frey hairs method as described earlier. […]
(§1) To determine surface expression of CD4 (Helper T cells), CD8 (killer T cells), CD25 (activated helper T cells and regulatory T cells), CD45 (macrophage and microglial cells) and F4/80 (macrophage and microglial cells) 5×10^5 cells/100 μL FACS buffer (PBS, 0.02% sodium azide [Sigma-Aldrich] and 2% bovine serum albumin) were incubated with appropriate antibodies from BD biosciences, Mountain View, Calif. […] Expression was analyzed (FACSCalibur with CellQuest software; BD Biosciences, Mountain View, Calif.).
For orientation: A flow cytometer gives signals particle by particle.

Experiment [2] relates to goblet cells and T cells in the conjunctiva. The experiment can be described thus: Dry eye desiccating stress in mice, therapeutic mode, conjunctiva histology. The conditions noted are these: 3 mg/kg/day via osmotic minipump, mice previously exposed to blower, comparable to Cyclosporine A, FIG. 12. The text has this:
C57BL/6 (C57BL/6NTac) and B6.Cg/NTac-Foxn1nuNE9 were purchased from Taconic, Inc. (Germantown, N.Y.). Mice were used at 6-10 weeks of age. Animal studies approval was obtained from the Allergan Animal Care and Use Committee. All studies adhered to the Association for Research in Vision and Ophthalmology statement for the Use of Animals in Ophthalmic and Vision Research. As described in the literature dry eye was induced by treating mice with subcutaneous injections of scopolamine hydrobromide (0.5 mg/0.2 ml; Sigma-Aldrich, St. Louis, Mo.) three times a day alternating between the left and right flanks (Neiderkorn et al, 2006). Mice were placed in a cage containing perforated plastic screens on each side of the cage to permit airflow from fans (one fan on each side of the cage) for 16 hr/day in a hood (AirClean Systems, Raleigh, N.C.). Room humidity was kept below 40%. Desiccating stress (DS) was induced for 10 consecutive days. Spleens and cervical lymph nodes (CLN) were collected from mice subjected to DS and NS, and one donor-equivalent of either spleen or CLN CD4+ cells was transferred i.p. to syngeneic nude mice. One splenic equivalent of T cells was equal to 5×10^7 cells. Three days later samples were collected for analysis. For tear collection, 1.5 μL of PBS was placed on each eye, and then 1 μL of tear was collected from both eyes and placed in 8 μL of cytokine assay buffer (Beadlyte; Millipore, Billerica, Mass.). Buffer and tear fluid were collected by capillary action using a 1 μL volume glass capillary tube (Drummond Scientific, Broomhall, Pa.) that was placed in the tear meniscus of the lateral canthus. Samples were frozen at −80° C. until the time of assay. Histological analysis was done by staining […] samples with antibody to CD4 and H&E staining to quantify goblet cells and T cells in the conjunctiva. To test the compounds in a therapeutic mode, the animals were exposed to the desiccating stress for two weeks and then allowed to rest for 7 days in regular housing cages. The animals were then re-exposed to desiccating stress for an additional 7 days to mimic relapsing form of chronic dry eye disease. Drug treatment with Compound B was started 2 days before re-exposure to desiccating stress. In both the studies Compound B was dosed at 3 mg/kg/day. Adoptive transfer, tear cytokine analysis and histological analysis were performed as described above.

The next experiment relates to CD4+/CD25+ Treg cells. The experiment can be described thus: Treg cell frequency in lymphatic organs of SNL rats (flow cytometry). The conditions noted are these: SNL Rat Model of Allodynic Neuropathic Pain, FIG. 2. On the procedure:
The SNL (or Chung) Model in the rat is an accepted standard animal model of neuropathic pain and is thought to mimic the human causalgia condition with respect to symptoms (guarding behavior, mechanical allodynia) and alleviation by pharmacological agents. […] The SNL Model is performed by tightly ligating the L-5 and L-6 spinal nerves, which produces tactile allodynia or sensitivity to light touch as described (Kim and Chung, 1992). Male sprague-dawley rats (100-120 grams; Charles River, Wilmington, Mass.) were anesthetized through inhalation of an isoflurane/oxygen mix. The surgical site was shaved and prepared with betadine. An incision was made from the thoracic vertebra XIII toward down the sacrum. The muscle was separated from the spinal vertebra (left side) at the L4-S2 levels. […]
as §1

Consider `Clc1cccc(CNC2=NCCN2)c1Cl` [Compound C], for which, in experiment [1] (flow cytometry on day 37, FIG. 7), the “frequency of regulatory T cells (CD4+CD25hiFoxP3+) in the spinal cord” value was “increased”. For the same compound, in experiment [2], the “T cell infiltration into the conjunctiva” value is given as “significantly reduced” and the goblet cell loss result is listed as “significantly reduced”.

Take `CCC1=CC(Cc2c[nH]cn2)CCC1` (centres unmarked) [Compound B]: in experiment [1] (flow cytometry at the end of the study, FIG. 5), the “presence of immune cells in the CNS” value is “significantly reduced”. Moreover, the Treg number result in experiment [1] (mice immunized with proteolipid protein, 3 mg/kg/day by osmotic minipump, FIG. 3) is given as “selectively boosted”. In experiment [2], the “T cell infiltration into the conjunctiva” value is listed as “significantly prevented” and the goblet cell loss entry is “significantly prevented”. In addition, the “frequency of spleen CD4+ T cells that are CD4+/CD25+ Treg cells” value with CD4+/CD25+ Treg cells is listed as “Sustained increase”.
